In US8557860B2, “Cyclopentane heptan(ENE)OIC acid, 2-heteroarylalkenyl derivatives as therapeutic agents” (Allergan, Inc., priority 2004, dated 2013):

Tests used:
Type in all cases: cell-based
hFP = target: T1, hFP (Homo sapiens, UniProt P43088); assay: FLIPR calcium signal study, hFP; settings: HEK-293(EBNA) cells, recombinant human receptor, read-out: FUNCTIONAL DATA (EC50 nm) HFP
T1 construct: expressed in transfected cells; host or cells: HEK-293(EBNA)
Method: (§1) HEK-293(EBNA) cells, stably expressing one type or subtype of recombinant human prostaglandin receptors (prostaglandin receptors expressed: hDP/Gqs5; hEP1; hEP2/Gqs5; hEP3A/Gqi5; hEP4/Gqs5; hFP; hIP; hTP), were cultured in 100 mm culture dishes in high-glucose DMEM medium containing 10% fetal bovine serum, 2 mM 1-glutamine, 250 μg/ml geneticin (G418) and 200 μg/ml hygromycin B as selection markers, and 100 units/ml penicillin G, 100 μg/ml streptomycin and 0.25 μg/ml amphotericin B.
(§2) Cells were seeded at a density of 5×10^4 cells per well in Biocoat® Poly-D-lysine-coated black-wall, clear-bottom 96-well plates (Becton-Dickinson) and allowed to attach overnight in an incubator at 37° C. Cells were then washed two times with HBSS-HEPES buffer (Hanks Balanced Salt Solution without bicarbonate and phenol red, 20 mM HEPES, pH 7.4) using a Denley Cellwash plate washer (Labsystems). […]
(§3) Cells were excited with an Argon laser at 488 nm, and emission was measured through a 510-570 nm bandwidth emission filter (FLIPR™, Molecular Devices, Sunnyvale, Calif.). […] The peak increase in fluorescence intensity was recorded for each well. […] The peak fluorescence change in each drug-containing well was then expressed relative to the controls. […]

hEP3A/Gqi5 = target: T2, hEP3A/Gqi5 (Homo sapiens, UniProt P43115); assay: FLIPR calcium signal study, hEP3A/Gqi5; settings: HEK-293(EBNA) cells, recombinant human receptor, read-out: FUNCTIONAL DATA (EC50 nm) HEP3A
T2 construct: expressed in transfected cells; host or cells: HEK-293(EBNA)
T2 sequence (P43115 1-390): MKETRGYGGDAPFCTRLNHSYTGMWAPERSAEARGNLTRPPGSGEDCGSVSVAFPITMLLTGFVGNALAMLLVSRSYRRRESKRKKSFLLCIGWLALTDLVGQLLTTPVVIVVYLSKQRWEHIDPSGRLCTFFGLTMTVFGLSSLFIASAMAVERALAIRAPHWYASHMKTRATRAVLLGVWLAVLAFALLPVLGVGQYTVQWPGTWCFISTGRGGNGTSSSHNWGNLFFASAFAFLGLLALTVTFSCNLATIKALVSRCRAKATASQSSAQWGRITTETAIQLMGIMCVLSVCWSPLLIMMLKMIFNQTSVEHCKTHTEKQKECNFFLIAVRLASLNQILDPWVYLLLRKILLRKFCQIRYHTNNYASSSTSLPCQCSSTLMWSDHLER
Method: as §1
(§4) Cells were seeded at a density of 5×10^4 cells per well in Biocoat® Poly-D-lysine-coated black-wall, clear-bottom 96-well plates (Becton-Dickinson) and allowed to attach overnight in an incubator at 37° C. Cells were then washed two times with HBSS-HEPES buffer (Hanks Balanced Salt Solution without bicarbonate and phenol red, 20 mM HEPES, pH 7.4) using a Denley Cellwash plate washer (Labsystems). After 45 minutes of dye-loading in the dark, using the calcium-sensitive dye Fluo-4 AM at a final concentration of 2 μM, plates were washed four times with HBSS-HEPES buffer to remove excess dye leaving 100 μl in each well. Plates were re-equilibrated to 37° C. for a few minutes.
(§5) Cells were excited with an Argon laser at 488 nm, and emission was measured through a 510-570 nm bandwidth emission filter (FLIPR™, Molecular Devices, Sunnyvale, Calif.). Drug solution was added in a 50 μl volume to each well to give the desired final concentration. The peak increase in fluorescence intensity was recorded for each well. On each plate, four wells each served as negative (HBSS-HEPES buffer) and positive controls (standard agonists: BW245C (hDP); PGE2 (hEP1; hEP2/Gqs5; hEP3A/Gqi5; hEP4/Gqs5); PGF2α (hFP); carbacyclin (hIP); U-46619 (hTP), depending on receptor). The peak fluorescence change in each drug-containing well was then expressed relative to the controls.
(§6) Compounds were tested in a high-throughput (HTS) or concentration-response (CoRe) format. […]

hTP = target: T3, hTP (Homo sapiens, UniProt P21731); assay: FLIPR calcium signal study, hTP; settings: HEK-293(EBNA) cells, recombinant human receptor, read-out: FUNCTIONAL DATA (EC50 nm) HTP
T3 construct: expressed in transfected cells; host or cells: HEK-293(EBNA)
T3 sequence (P21731 1-343): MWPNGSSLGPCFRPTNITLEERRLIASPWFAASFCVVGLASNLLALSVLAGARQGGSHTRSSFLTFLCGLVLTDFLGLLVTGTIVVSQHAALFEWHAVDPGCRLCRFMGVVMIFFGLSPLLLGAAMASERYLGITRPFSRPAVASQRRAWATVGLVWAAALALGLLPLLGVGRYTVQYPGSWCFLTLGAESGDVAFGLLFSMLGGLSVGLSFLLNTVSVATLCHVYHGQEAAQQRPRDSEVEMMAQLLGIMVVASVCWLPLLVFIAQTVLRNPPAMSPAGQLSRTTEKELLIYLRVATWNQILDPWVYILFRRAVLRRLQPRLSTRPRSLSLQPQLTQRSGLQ
Method: as §1, §4, §5, §6

hEP1 = target: T4, hEP1 (Homo sapiens, UniProt P34995); assay: FLIPR calcium signal study, hEP1; settings: HEK-293(EBNA) cells, recombinant human receptor, read-out: FUNCTIONAL DATA (EC50 nm) HEP1
T4 construct: expressed in transfected cells; host or cells: HEK-293(EBNA)
T4 sequence (P34995 1-402): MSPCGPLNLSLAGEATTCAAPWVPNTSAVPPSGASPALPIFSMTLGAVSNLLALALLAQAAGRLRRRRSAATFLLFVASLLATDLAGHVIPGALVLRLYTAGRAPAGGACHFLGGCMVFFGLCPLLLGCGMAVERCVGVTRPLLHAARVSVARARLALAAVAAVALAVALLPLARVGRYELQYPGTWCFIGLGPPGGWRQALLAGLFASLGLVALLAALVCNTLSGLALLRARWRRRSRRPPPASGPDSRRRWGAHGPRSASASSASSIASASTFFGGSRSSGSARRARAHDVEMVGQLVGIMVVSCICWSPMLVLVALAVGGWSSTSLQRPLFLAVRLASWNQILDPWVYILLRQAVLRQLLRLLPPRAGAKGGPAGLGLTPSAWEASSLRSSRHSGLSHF
Method: as §1, §2, §3

hEP4/Gqs5 = target: T5, hEP4/Gqs5 (Homo sapiens, UniProt P35408); assay: FLIPR calcium signal study, hEP4/Gqs5; settings: HEK-293(EBNA) cells, recombinant human receptor, read-out: FUNCTIONAL DATA (EC50 nm) HEP4
T5 construct: expressed in transfected cells; host or cells: HEK-293(EBNA)
Method: as §1, §2, §3

T5 sequence (P35408 whole entry): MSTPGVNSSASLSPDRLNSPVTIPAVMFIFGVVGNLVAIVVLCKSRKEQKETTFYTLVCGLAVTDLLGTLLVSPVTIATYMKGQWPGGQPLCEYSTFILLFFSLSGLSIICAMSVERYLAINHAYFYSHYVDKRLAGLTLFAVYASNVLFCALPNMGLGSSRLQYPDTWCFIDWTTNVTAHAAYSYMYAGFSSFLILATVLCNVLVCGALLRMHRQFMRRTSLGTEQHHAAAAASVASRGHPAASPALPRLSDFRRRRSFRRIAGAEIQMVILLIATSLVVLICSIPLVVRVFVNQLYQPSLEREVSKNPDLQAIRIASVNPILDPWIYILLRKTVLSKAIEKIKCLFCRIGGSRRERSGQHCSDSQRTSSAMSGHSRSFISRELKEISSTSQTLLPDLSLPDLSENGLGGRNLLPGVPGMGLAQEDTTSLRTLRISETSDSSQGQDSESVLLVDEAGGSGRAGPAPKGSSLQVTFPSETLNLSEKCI
T1 sequence (P43088 whole entry): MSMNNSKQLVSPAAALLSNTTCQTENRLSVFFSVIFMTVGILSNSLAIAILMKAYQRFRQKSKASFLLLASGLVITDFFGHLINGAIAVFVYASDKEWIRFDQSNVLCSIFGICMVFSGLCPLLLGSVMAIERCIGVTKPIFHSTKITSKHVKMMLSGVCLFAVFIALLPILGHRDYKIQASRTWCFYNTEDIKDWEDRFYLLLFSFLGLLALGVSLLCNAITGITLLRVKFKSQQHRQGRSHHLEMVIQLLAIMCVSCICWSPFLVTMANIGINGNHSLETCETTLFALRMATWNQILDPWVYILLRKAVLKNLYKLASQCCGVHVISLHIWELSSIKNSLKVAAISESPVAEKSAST

EC50 (hFP) [µM]	EC50 (hEP3A/Gqi5) [µM]	EC50 (hTP) [µM]	EC50 (hEP1) [µM]	EC50 (hEP4/Gqs5) [µM]	SMILES
2.07	> 100	1.87	–	–	COC(=O)CCC/C=C\C[C@H]1C(O)CC[C@@H]1/C=C/[C@@H](O)CCc1cc(Br)c(C)s1 (single isomer, unassigned)
–	0.793	0.096	> 100	> 100	Cc1sc(CC[C@H](O)/C=C/[C@H]2CCC(O)[C@@H]2C/C=C\CCCC(=O)O)cc1Br (single isomer, unassigned) [drawing 39]
> 100	> 100	> 100	–	0.832	Cc1sc(CC[C@H](O)/C=C/[C@H]2CCC(O)[C@@H]2C/C=C\CCCC(=O)O)cc1Br (single isomer, unassigned) [drawing 40]
